# From PubChem BioAssay AID2060889 (Molecular Pharmacology Branch, DTP, NCI, 2025)
# Tested on: LG0567-F671-PDC complex spheroids viability
# Assay: Anticancer human tumor LG0567-F671-PDC patient-derived lung adenocarcinoma cell line growth inhibition [RAS]
# Settings: for IC50: curve of first compound; for viability, T/C: stronger effect = lower value
# In short: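 Multi-cell-type spheroids: tumor cells plus HUVEC endothelial cells and mesenchymal stem cells. RAS-pathway inhibitors were combined with targeted agents, each dosed in half-log steps down from clinical Cmax, or from 10 microM when Cmax was unknown.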
# [1] = second compound 0.00316 µM, first compound 0.0316 µM
# [2] = second compound 0.00316 µM, first compound 0.1 µM
# [3] = second compound 0.00316 µM, first compound 0.316 µM
# [4] = second compound 0.00316 µM, first compound 1 µM
# [5] = second compound 0.01 µM, first compound 0.0316 µM
# [6] = second compound 0.01 µM, first compound 0.1 µM
# [7] = second compound 0.01 µM, first compound 0.316 µM
# [8] = second compound 0.01 µM, first compound 1 µM
# [9] = second compound 0.0316 µM, first compound 0.0316 µM
# [10] = second compound 0.0316 µM, first compound 0.1 µM
# [11] = second compound 0.0316 µM, first compound 0.316 µM
# [12] = second compound 0.0316 µM, first compound 1 µM
# [13] = second compound 0.1 µM, first compound 0.0316 µM
# [14] = second compound 0.1 µM, first compound 0.1 µM
# [15] = second compound 0.1 µM, first compound 0.316 µM
# [16] = second compound 0.1 µM, first compound 1 µM
# [17] = second compound 0.316 µM, first compound 0.0316 µM
# [18] = second compound 0.316 µM, first compound 0.1 µM
# [19] = second compound 0.316 µM, first compound 0.316 µM
# [20] = second compound 0.316 µM, first compound 1 µM
# [21] = second compound 1 µM, first compound 0.0316 µM
# [22] = second compound 1 µM, first compound 0.1 µM
# [23] = second compound 1 µM, first compound 0.316 µM
# [24] = second compound 1 µM, first compound 1 µM
# [25] = second compound 0.00316 µM, first compound 3.16 µM
# [26] = second compound 0.00316 µM, first compound 10 µM
# [27] = second compound 0.01 µM, first compound 3.16 µM
# [28] = second compound 0.01 µM, first compound 10 µM
# [29] = second compound 0.0316 µM, first compound 3.16 µM
# [30] = second compound 0.0316 µM, first compound 10 µM
# [31] = second compound 0.1 µM, first compound 3.16 µM
# [32] = second compound 0.1 µM, first compound 10 µM
# [33] = second compound 0.316 µM, first compound 3.16 µM
# [34] = second compound 0.316 µM, first compound 10 µM
# [35] = second compound 1 µM, first compound 3.16 µM
# [36] = second compound 1 µM, first compound 10 µM
# 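Note: spheroids exposed to compound for seven days before readout.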
# 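Throughout, for IC50: luminescence signal used as a proxy for viable cells.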
structure (smiles),measurement,setting,value
CCN1CCN(Cc2ccc(Nc3ncc(F)c(-c4cc(F)c5nc(C)n(C(C)C)c5c4)n3)nc2)CC1 + C=CC(=O)N1CCN(c2nc(OCC3CCCN3C)nc3c(F)c(-c4nc(N)cc(C)c4C(F)(F)F)c(Cl)cc23)C(C)C1,IC50,second compound 0.00316 µM,< 3.16 nM
same,IC50,second compound 0.01 µM,< 3.16 nM
same,IC50,second compound 0.0316 µM,< 3.16 nM
same,IC50,second compound 0.1 µM,< 3.16 nM
same,IC50,second compound 0.316 µM,< 3.16 nM
same,IC50,second compound 1 µM,< 3.16 nM
same,"viability, T/C","second compound 0.00316 µM, first compound 0.00316 µM",16.6%
same,"viability, T/C","second compound 0.00316 µM, first compound 0.01 µM",14.9%
same,"viability, T/C",[1],13.7%
same,"viability, T/C",[2],14.2%
same,"viability, T/C",[3],16.6%
same,"viability, T/C",[4],22%
same,"viability, T/C","second compound 0.01 µM, first compound 0.00316 µM",13.5%
same,"viability, T/C","second compound 0.01 µM, first compound 0.01 µM",14.1%
same,"viability, T/C",[5],14.4%
same,"viability, T/C",[6],11.8%
same,"viability, T/C",[7],14.9%
same,"viability, T/C",[8],20.2%
same,"viability, T/C","second compound 0.0316 µM, first compound 0.00316 µM",14.8%
same,"viability, T/C","second compound 0.0316 µM, first compound 0.01 µM",13.1%
same,"viability, T/C",[9],11.7%
same,"viability, T/C",[10],12.4%
same,"viability, T/C",[11],14.3%
same,"viability, T/C",[12],21.2%
same,"viability, T/C","second compound 0.1 µM, first compound 0.00316 µM",11.7%
same,"viability, T/C","second compound 0.1 µM, first compound 0.01 µM",11.5%
same,"viability, T/C",[13],12.4%
same,"viability, T/C",[14],11.5%
same,"viability, T/C",[15],15%
same,"viability, T/C",[16],18.1%
same,"viability, T/C","second compound 0.316 µM, first compound 0.00316 µM",12.7%
same,"viability, T/C","second compound 0.316 µM, first compound 0.01 µM",13.1%
same,"viability, T/C",[17],11.9%
same,"viability, T/C",[18],11.3%
same,"viability, T/C",[19],13.8%
same,"viability, T/C",[20],17.2%
same,"viability, T/C","second compound 1 µM, first compound 0.00316 µM",13.4%
same,"viability, T/C","second compound 1 µM, first compound 0.01 µM",14.9%
same,"viability, T/C",[21],12.6%
same,"viability, T/C",[22],13.7%
same,"viability, T/C",[23],16.1%
same,"viability, T/C",[24],20.9%
Cc1nc(N2CCC3(CC2)COC(C)C3N)c(CO)nc1Sc1ccnc(N)c1Cl (stereo unspecified) + C=CC(=O)N1CCN(c2nc(OCC3CCCN3C)nc3c(F)c(-c4nc(N)cc(C)c4C(F)(F)F)c(Cl)cc23)C(C)C1,IC50,second compound 0.00316 µM,< 31.6 nM
same,IC50,second compound 0.01 µM,< 31.6 nM
same,IC50,second compound 0.0316 µM,< 31.6 nM
same,IC50,second compound 0.1 µM,< 31.6 nM
same,IC50,second compound 0.316 µM,< 31.6 nM
same,IC50,second compound 1 µM,< 31.6 nM
same,"viability, T/C",[1],12.4%
same,"viability, T/C",[2],7.94%
same,"viability, T/C",[3],5.15%
same,"viability, T/C",[4],4.23%
same,"viability, T/C",[25],3.11%
same,"viability, T/C",[26],3.36%
same,"viability, T/C",[5],10.9%
same,"viability, T/C",[6],6.73%
same,"viability, T/C",[7],5.04%
same,"viability, T/C",[8],3.41%
same,"viability, T/C",[27],3.13%
same,"viability, T/C",[28],2.84%
same,"viability, T/C",[9],9.73%
same,"viability, T/C",[10],7.78%
same,"viability, T/C",[11],4.91%
same,"viability, T/C",[12],3.38%
same,"viability, T/C",[29],3.09%
same,"viability, T/C",[30],2.69%
same,"viability, T/C",[13],9.46%
same,"viability, T/C",[14],8.29%
same,"viability, T/C",[15],4.85%
same,"viability, T/C",[16],3.44%
same,"viability, T/C",[31],3.22%
same,"viability, T/C",[32],2.91%
same,"viability, T/C",[17],10.3%
same,"viability, T/C",[18],7.09%
same,"viability, T/C",[19],5.95%
same,"viability, T/C",[20],4.14%
same,"viability, T/C",[33],3.2%
same,"viability, T/C",[34],3.39%
same,"viability, T/C",[21],9.98%
same,"viability, T/C",[22],8.28%
same,"viability, T/C",[23],6.91%
same,"viability, T/C",[24],4.16%
same,"viability, T/C",[35],3.7%
same,"viability, T/C",[36],4.07%
NC1c2ccccc2OC12CCN(c1cnc3c(N4CCCc5ncccc54)n[nH]c3n1)CC2 (stereo unspecified) + C=CC(=O)N1CCN(c2nc(OCC3CCCN3C)nc3c(F)c(-c4nc(N)cc(C)c4C(F)(F)F)c(Cl)cc23)C(C)C1,IC50,second compound 0.00316 µM,< 31.6 nM
same,IC50,second compound 0.01 µM,< 31.6 nM
same,IC50,second compound 0.0316 µM,< 31.6 nM
same,IC50,second compound 0.1 µM,< 31.6 nM
same,IC50,second compound 0.316 µM,< 31.6 nM
same,IC50,second compound 1 µM,< 31.6 nM
same,"viability, T/C",[1],6.27%
same,"viability, T/C",[2],4.36%
same,"viability, T/C",[3],3.09%
same,"viability, T/C",[4],2.99%
same,"viability, T/C",[25],2.79%
same,"viability, T/C",[26],3.28%
same,"viability, T/C",[5],5.37%
same,"viability, T/C",[6],3.73%
same,"viability, T/C",[7],2.99%
same,"viability, T/C",[8],2.89%
same,"viability, T/C",[27],2.44%
same,"viability, T/C",[28],2.64%
same,"viability, T/C",[9],4.86%
same,"viability, T/C",[10],3.54%
same,"viability, T/C",[11],3.04%
same,"viability, T/C",[12],3.15%
same,"viability, T/C",[29],2.61%
same,"viability, T/C",[30],3.04%
same,"viability, T/C",[13],5.91%
same,"viability, T/C",[14],4.17%
same,"viability, T/C",[15],2.81%
same,"viability, T/C",[16],2.78%
same,"viability, T/C",[31],3%
same,"viability, T/C",[32],2.64%
same,"viability, T/C",[17],5.55%
same,"viability, T/C",[18],3.15%
same,"viability, T/C",[19],3.61%
same,"viability, T/C",[20],3.03%
same,"viability, T/C",[33],2.75%
same,"viability, T/C",[34],2.78%
same,"viability, T/C",[21],5.5%
same,"viability, T/C",[22],4.65%
same,"viability, T/C",[23],3.58%
same,"viability, T/C",[24],3.3%
same,"viability, T/C",[35],3.79%
same,"viability, T/C",[36],3.5%
